Article PMC11392244, “Characterization of a unique catechol-O-methyltransferase as a molecular drug target in parasitic filarial nematodes” (PLOS Neglected Tropical Diseases, 2024)
Where “and” joins values, the source holds several entries; their conditions need not be identical. Identical values can stand only once. Like-named read-outs stand apart in the source and are kept apart here.

Tests used:
DiMT protein = format: biochemical, Dirofilaria immitis
D. immitis microfilariae = assay: In vitro efficacy against live D. immitis microfilariae (motility, completely immotile %); format: cell-based, Dirofilaria immitis; settings: for Completely Immotile Microfilariae (%): single experiments
mice = settings: ref [59]; cited from earlier work
Gram-positive bacteria = system: Gram-positive bacteria; set-up: method as in PMID 4622052; settings: in vitro and in vivo; ref [59]; cited from earlier work
mammalian cells = settings: read-out: Cytotoxicity IC50, ref Zhang et al., [30]; cited from earlier work

CO[C@@H]1/C=C/O[C@@]2(C)Oc3c(C)c(O)c4c(c3C2=O)C(=N[C@@H]2CC[C@@H](O)O[C@H]2C)C=C(NC(=O)/C(C)=C\C(=O)[C@@H]2C[C@@H]2[C@H](O)[C@@H](C)[C@@H](O)[C@@H](C)[C@H](OC(C)=O)[C@@H]1C)C4=O [NSC177383, tolypomycin-Y]
Mean Percent Inhibition (DiMT protein; 40 µM): 17.3% and 18.1% and 14.9%
Mean Percent Inhibition, Average (DiMT protein; 40 µM): 16.8%
Mean Percent Inhibition (DiMT protein; 80 µM): 30.5% and 30.7% and 34.4%
Mean Percent Inhibition, Average (DiMT protein; 80 µM): 31.9%
Mean Percent Inhibition (DiMT protein; 120 µM): 45.9% and 41.2% and 40.2%
Mean Percent Inhibition, Average (DiMT protein; 120 µM): 42.4%
Mean Percent Inhibition (DiMT protein; 140 µM): 50.6% and 45.4% and 42.2%
Mean Percent Inhibition, Average (DiMT protein; 140 µM): 46.1%
Mean Percent Inhibition (DiMT protein; 180 µM): 63.6% and 62.4% and 64.2%
Mean Percent Inhibition, Average (DiMT protein; 180 µM): 63.4%
IC50 (DiMT protein; read-out: IC 50 (μM ± SEM)): 140 ± 2.2 µM
Mean completely Immotile (%) (D. immitis microfilariae; 10 µM, 0 h): 0%
Mean completely Immotile (%) (D. immitis microfilariae; 10 µM, 24 h): 7.83%
Mean completely Immotile (%) (D. immitis microfilariae; 10 µM, 48 h): 18.5%
Mean completely Immotile (%) (D. immitis microfilariae; 10 µM, 72 h): 27.33%
Mean completely Immotile (%) (D. immitis microfilariae; 10 µM, 96 h): 38%
Mean completely Immotile (%) (D. immitis microfilariae; 10 µM, 120 h): 56.33%
Mean completely Immotile (%) (D. immitis microfilariae; 25 µM, 0 h): 0%
Mean completely Immotile (%) (D. immitis microfilariae; 25 µM, 24 h): 25.33%
Mean completely Immotile (%) (D. immitis microfilariae; 25 µM, 48 h): 33%
Mean completely Immotile (%) (D. immitis microfilariae; 25 µM, 72 h): 71.33%
Mean completely Immotile (%) (D. immitis microfilariae; 25 µM, 96 h): 91.33%
Mean completely Immotile (%) (D. immitis microfilariae; 40 µM, 0 h): 0%
Mean completely Immotile (%) (D. immitis microfilariae; 40 µM, 24 h): 57.67%
Mean completely Immotile (%) (D. immitis microfilariae; 40 µM, 48 h): 87.67%
Mean completely Immotile (%) (D. immitis microfilariae; 40 µM, 72 h): 96.67%
Mean completely Immotile (%) (D. immitis microfilariae; 40 µM, 96 h): 100%
Mean completely Immotile (%) (D. immitis microfilariae; 40 µM, 120 h): 100%
Mean completely Immotile (%) (D. immitis microfilariae; 50 µM, 0 h): 0%
Mean completely Immotile (%) (D. immitis microfilariae; 50 µM, 24 h): 64.67%
Mean completely Immotile (%) (D. immitis microfilariae; 50 µM, 48 h): 93.67%
Mean completely Immotile (%) (D. immitis microfilariae; 50 µM, 72 h): 100%
Mean completely Immotile (%) (D. immitis microfilariae; 50 µM, 96 h): 100%
Mean completely Immotile (%) (D. immitis microfilariae; 50 µM, 120 h): 100%
Mean completely Immotile (%) (D. immitis microfilariae; 75 µM, 0 h): 0%
Mean completely Immotile (%) (D. immitis microfilariae; 75 µM, 24 h): 95.33%
Mean completely Immotile (%) (D. immitis microfilariae; 75 µM, 48 h): 100%
Mean completely Immotile (%) (D. immitis microfilariae; 75 µM, 72 h): 100%
Mean completely Immotile (%) (D. immitis microfilariae; 75 µM, 96 h): 100%
Mean completely Immotile (%) (D. immitis microfilariae; 75 µM, 120 h): 100%
Mean completely Immotile (%) (D. immitis microfilariae; 100 µM, 0 h): 0%
Mean completely Immotile (%) (D. immitis microfilariae; 100 µM, 24 h): 100%
Mean completely Immotile (%) (D. immitis microfilariae; 100 µM, 48 h): 100%
Mean completely Immotile (%) (D. immitis microfilariae; 100 µM, 72 h): 100%
Mean completely Immotile (%) (D. immitis microfilariae; 100 µM, 96 h): 100%
Mean completely Immotile (%) (D. immitis microfilariae; 100 µM, 120 h): 100%
EC50 (D. immitis microfilariae; 96 h post-treatment, read-out: Anti-parasitic EC50): 11.7 µM and 11.6 µM
Completely Immotile Microfilariae (%) (D. immitis microfilariae; 10 µM, 0 h): 0%
Completely Immotile Microfilariae (%) (D. immitis microfilariae; 10 µM, 24 h): 5% and 8.5% and 10%
Completely Immotile Microfilariae (%) (D. immitis microfilariae; 10 µM, 48 h): 15% and 19.5% and 21%
Completely Immotile Microfilariae (%) (D. immitis microfilariae; 10 µM, 72 h): 25% and 27% and 30%
Completely Immotile Microfilariae (%) (D. immitis microfilariae; 10 µM, 96 h): 35% and 38% and 41%
Completely Immotile Microfilariae (%) (D. immitis microfilariae; 10 µM, 120 h): 50% and 61% and 58%
Completely Immotile Microfilariae (%) (D. immitis microfilariae; 25 µM, 0 h): 0%
Completely Immotile Microfilariae (%) (D. immitis microfilariae; 25 µM, 24 h): 25% and 28% and 23%
Completely Immotile Microfilariae (%) (D. immitis microfilariae; 25 µM, 48 h): 30% and 37% and 32%
Completely Immotile Microfilariae (%) (D. immitis microfilariae; 25 µM, 72 h): 70% and 76% and 68%
Completely Immotile Microfilariae (%) (D. immitis microfilariae; 25 µM, 96 h): 90% and 95% and 89%
Completely Immotile Microfilariae (%) (D. immitis microfilariae; 25 µM, 120 h): 100%
Completely Immotile Microfilariae (%) (D. immitis microfilariae; 40 µM, 0 h): 0%
Completely Immotile Microfilariae (%) (D. immitis microfilariae; 40 µM, 24 h): 50% and 65% and 58%
Completely Immotile Microfilariae (%) (D. immitis microfilariae; 40 µM, 48 h): 85% and 90% and 88%
Completely Immotile Microfilariae (%) (D. immitis microfilariae; 40 µM, 72 h): 95% and 98% and 97%
Completely Immotile Microfilariae (%) (D. immitis microfilariae; 40 µM, 96 h): 100%
Completely Immotile Microfilariae (%) (D. immitis microfilariae; 40 µM, 120 h): 100%
Completely Immotile Microfilariae (%) (D. immitis microfilariae; 50 µM, 0 h): 0%
Completely Immotile Microfilariae (%) (D. immitis microfilariae; 50 µM, 24 h): 60% and 78% and 56%
Completely Immotile Microfilariae (%) (D. immitis microfilariae; 50 µM, 48 h): 90% and 95% and 96%
Completely Immotile Microfilariae (%) (D. immitis microfilariae; 50 µM, 72 h): 100%
Completely Immotile Microfilariae (%) (D. immitis microfilariae; 50 µM, 96 h): 100%
Completely Immotile Microfilariae (%) (D. immitis microfilariae; 50 µM, 120 h): 100%
Completely Immotile Microfilariae (%) (D. immitis microfilariae; 75 µM, 0 h): 0%
Completely Immotile Microfilariae (%) (D. immitis microfilariae; 75 µM, 24 h): 95% and 93% and 98%
Completely Immotile Microfilariae (%) (D. immitis microfilariae; 75 µM, 48 h): 100%
Completely Immotile Microfilariae (%) (D. immitis microfilariae; 75 µM, 72 h): 100%
Completely Immotile Microfilariae (%) (D. immitis microfilariae; 75 µM, 96 h): 100%
Completely Immotile Microfilariae (%) (D. immitis microfilariae; 75 µM, 120 h): 100%
Completely Immotile Microfilariae (%) (D. immitis microfilariae; 100 µM, 0 h): 0%
Completely Immotile Microfilariae (%) (D. immitis microfilariae; 100 µM, 24 h): 100%
Completely Immotile Microfilariae (%) (D. immitis microfilariae; 100 µM, 48 h): 100%
Completely Immotile Microfilariae (%) (D. immitis microfilariae; 100 µM, 72 h): 100%
Completely Immotile Microfilariae (%) (D. immitis microfilariae; 100 µM, 96 h): 100%
Completely Immotile Microfilariae (%) (D. immitis microfilariae; 100 µM, 120 h): 100%
effect on microfilariae (D. immitis microfilariae; up to 120 h of culture): killing effect
toxicity in mice (mice): low toxicity
antimicrobial activities against Gram-positive bacteria (Gram-positive bacteria): strong antimicrobial activities
IC50 (mammalian cells): 85.5 µM
